Measurements reported in US20260174860A1, “HYBRID COMPOUNDS OF SCLAREOL AND DOXORUBICIN, THEIR SYNTHESIS AND APPLICATION” (INSTITUTE FOR BIOLOGICAL RESEARCH "SINISA STANKOVIC" - …, priority 2023, published 2026).
Like-named read-outs stand apart in the source and are kept apart here.

What was measured:
[1] = system: U87, U87-TxR, U251, NCI-H460, NCI-H460/R, DLD1, DLD1-TxR and MRC-5; experiment: MTT cytotoxicity across the cell line panel (FIG. 1); format: cell-based; conditions: Homo sapiens
Procedure: The MTT test was used to evaluate the effect of the compounds on cell viability. The test relies on the reduction of tetrazolium salt (MTT) to formazan, which is catalyzed by the mitochondrial enzyme succinate dehydrogenase. The activity of succinate dehydrogenase, which is indicative of mitochondrial respiration, is taken as an indirect measure of the metabolic activity of the cell, and thus its viability. The MTT-formazan produced is a purple-colored product, whose absorbance is measured at a wavelength of 570 nm. • a) To determine the inhibition of cell growth by SC, different cell lines were exposed to increasing concentrations of SC (5, 10, 25, 50, and 100 μM). […] The absorbance of the samples was measured at 570 nm using a Multiskan Sky Microplate spectrophotometer (ThermoFisher Scientific, USA). The results were analyzed using GraphPad Prism 8.0.2. software, and the IC50 values were determined by non-linear regression. • b) To test the interaction between SC and DOX in terms of cytotoxicity in different cell lines, cells were seeded in 96-well microtiter plates at a density of 2,000 cells per well for NCI-H460, NCI-H460/R, DLD1 and DLD1-TxR, and 4,000 cells per well for MRC-5, U87, U87-TxR, and U251 in 100 μl of the appropriate medium. […]

[2] = system: breast cancer cell lines; conditions: 0.1 μM DOX alone or combined with 50 μM SC; cited from earlier work
[3] = system: Balb/c mice; experiment: Comparative toxicology study of DOX and CON1; format: in vivo; conditions: i.p.; for creatine phosphokinase (CPK): after 72 h, only DOX significant; for other blood parameters (RBC, HGB, HCT, MCV, MCH, MCHC, RDW, PLT, MPV): data not shown; for percentage of lymphocytes (% LYM, LYM, WBC) / percentage of monocytes and granulocytes (% MON and % GRA): over time
Procedure: Male Balb/c mice, aged 7-11 weeks, were sourced from the EL-42BIO/Br-01 (Laboratory of Pharmacology, School of Medicine, University of Thessaly, Larissa, Greece). The mice were kept in an environment with a 12-hour light/dark cycle, humidity of around 50-60%, and a temperature of 20-22° C. They had free access to food and water. The handling and experimentation of the mice were conducted in compliance with the Greek laws (PD 56/2013 and Circular 2215/117550/2013) and the European Union guidelines ([…]). The protocol was approved by the IACUC and Greek authorities (License no. 58376/13.02.2023). The mice were divided into three groups with two mice per group, amounting to a total of 18 mice. They were treated as follows: Group 1 received vehicle (10% DMSO and 5% Tween80); Group 2-DOX received 7 mg/kg of body weight via intraperitoneal injection (i.p.); Group 3 received CON1 at 14 mg/kg of body weight (to achieve a DOX concentration of 7 mg/kg of body weight), i.p. The study took place over three time points: 24 h, 48 h and 72 h. At the end of each period, blood samples were collected from the mice's tails and cheeks, and the mice were euthanized by CO2 inhalation followed by cervical dislocation. Fresh blood samples were analyzed using the scil Vet ABC™Hematology Analyzer (scil animal care company GmbH, Germany), while sera from all samples were extracted and analyzed using the Skyla VB1 Veterinary Clinical Chemistry Analyzer (Skyla Corporation, Taiwan) with the Critical Care Panel (900-330) (Skyla Corporation, Taiwan).

[4] = system: spheroids of ovarian cancer cell lines that are resistant to DOX; conditions: effect of SC; cited from earlier work
[5] = target: T1, P-glycoprotein activity in NCI-H460/R (Homo sapiens, UniProt P08183); experiment: DOX and rhodamine 123 accumulation test, flow cytometry; format: cell-based
T1 construct: obtained by successive exposure of NCI-H460 cells to increasing concentrations of DOX; endogenous in cells; host or cells: NCI-H460/R (doxorubicin-selected from NCI-H460)
Procedure: • a) First, DOX accumulation test was performed on three glioblastoma cell lines, U87, U87-TxR, and U251. Cells were trypsinized and counted, and then 100,000 cells per sample were collected in a tube for flow cytometry and resuspended in 500 μL of culture medium. Cells were treated with 20 μM and 50 µM SC. Immediately after SC treatment, cells were treated with 20 μM DOX, and samples were incubated at 37° C. in a humid atmosphere with 5% CO2 for 60 min. After the accumulation period, the samples were centrifuged, washed twice with cold Phosphate Buffered Saline (PBS), and finally resuspended in 1 mL of PBS. The fluorescence of the samples was read on the FL2 (red channel) of a cytofluorimeter (Partec, Munster, Germany), and the results were analyzed with the software package Summit 4.3. • b) Secondly, DOX and rhodamine 123 accumulation test was performed on non-small cell lung carcinoma cell lines NCI-H460 and NCI-H460/R. Cells were trypsinized and counted, and then 100,000 cells per sample were collected in a tube for flow cytometry and resuspended in 500 μl of culture medium. Cells were treated with 50 μM SC. Immediately after treatment, 5 μM Rho123 was added to one group of samples and the other 20 μM DOX. […] The samples were analyzed using a flow cytometer, reading for rhodamine 123 on FL1 (green channel) and DOX on FL2 (red channel). […]

[6] = DOX 7 mg/kg, CON1 14 mg/kg, 24, 48, 72 h
[7] = CON1 14 mg/kg, at 48 h, disappeared after 72 h

T1 sequence (P08183 whole entry): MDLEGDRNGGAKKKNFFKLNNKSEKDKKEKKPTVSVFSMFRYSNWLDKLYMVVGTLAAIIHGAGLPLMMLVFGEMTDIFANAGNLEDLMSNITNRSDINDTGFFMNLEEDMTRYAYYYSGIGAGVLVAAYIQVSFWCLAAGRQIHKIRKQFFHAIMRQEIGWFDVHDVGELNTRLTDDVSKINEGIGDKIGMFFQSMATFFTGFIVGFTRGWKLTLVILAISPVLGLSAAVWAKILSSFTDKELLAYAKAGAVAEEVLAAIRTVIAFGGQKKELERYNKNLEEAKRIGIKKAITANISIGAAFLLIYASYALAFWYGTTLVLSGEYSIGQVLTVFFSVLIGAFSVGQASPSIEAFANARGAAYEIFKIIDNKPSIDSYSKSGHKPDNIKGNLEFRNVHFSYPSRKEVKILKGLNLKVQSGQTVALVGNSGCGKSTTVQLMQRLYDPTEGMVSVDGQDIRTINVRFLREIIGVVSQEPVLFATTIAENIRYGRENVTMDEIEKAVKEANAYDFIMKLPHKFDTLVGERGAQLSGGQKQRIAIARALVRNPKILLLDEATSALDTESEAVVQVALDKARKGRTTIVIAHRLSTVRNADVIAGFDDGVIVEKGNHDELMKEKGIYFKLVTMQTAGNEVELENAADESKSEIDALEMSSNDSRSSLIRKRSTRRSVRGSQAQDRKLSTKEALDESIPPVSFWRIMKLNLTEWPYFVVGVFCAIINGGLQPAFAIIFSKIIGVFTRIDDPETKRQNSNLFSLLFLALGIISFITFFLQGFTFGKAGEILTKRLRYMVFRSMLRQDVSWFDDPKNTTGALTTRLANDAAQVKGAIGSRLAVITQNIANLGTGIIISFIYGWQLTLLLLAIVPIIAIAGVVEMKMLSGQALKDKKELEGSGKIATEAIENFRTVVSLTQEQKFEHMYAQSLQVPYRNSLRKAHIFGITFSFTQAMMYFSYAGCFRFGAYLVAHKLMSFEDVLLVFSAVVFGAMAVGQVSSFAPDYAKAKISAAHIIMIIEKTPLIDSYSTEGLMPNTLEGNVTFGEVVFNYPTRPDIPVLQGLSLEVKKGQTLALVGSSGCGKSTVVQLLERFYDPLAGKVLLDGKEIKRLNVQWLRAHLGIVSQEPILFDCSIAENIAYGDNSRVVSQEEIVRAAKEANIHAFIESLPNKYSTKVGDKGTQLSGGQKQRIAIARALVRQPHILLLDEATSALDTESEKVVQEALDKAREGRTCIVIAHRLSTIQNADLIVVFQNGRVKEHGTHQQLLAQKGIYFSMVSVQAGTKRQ

accumulation of DOX ([5]; 50 μM SC with 20 μM DOX, 60 min)	accumulation of rhodamine 123 / P-glycoprotein activity ([5]; 50 μM SC with rhodamine 123, 30 min)	Compound	IC50 ([1]; micromolar range in resistant lines, nanomolar in sensitive ones, read-out: DOX active concentration in resistant cancer cell lines)	rate of cell growth [2]	alanine aminotransferase (ALT) [3, 6]	alkaline phosphatase (ALP) [3, 6]	creatine phosphokinase (CPK) ([3]; DOX 7 mg/kg, CON1 14 mg/kg)	other blood parameters (RBC, HGB, HCT, MCV, MCH, MCHC, RDW, PLT, MPV) ([3]; DOX 7 mg/kg, CON1 14 mg/kg)	percentage of lymphocytes (% LYM, LYM, WBC) ([3]; DOX 7 mg/kg, CON1 14 mg/kg)	percentage of monocytes and granulocytes (% MON and % GRA) ([3]; DOX 7 mg/kg, CON1 14 mg/kg)	levels of K ([3]; DOX 7 mg/kg, 24, 48, 72 h)	IC50 ([1]; range depending on the cell type, FIG. 1, MTT 72 h, read-out: IC50 value of 50% inhibition of cell growth)	accumulation of DOX in spheroids [4]	increase of the cytotoxicity of DOX [4]	percentage of eosinophils (% EOS) ([3]; CON1 14 mg/kg)	Ca levels [3, 7]	Na levels [3, 7]	total bicarbonate (tCO2) ([3]; CON1 14 mg/kg, at 48 h, disappeared by 72 h)
		COc1cccc2c1C(=O)c1c(O)c3c(c(O)c1C2=O)C[C@@](O)(C(=O)CO)C[C@@H]3O[C@H]1C[C@H](N)[C@H](O)[C@H](C)O1 [DOX, doxorubicin]	< 5 µM	76%	increase	significantly decrease	increased	None of the tested compounds, DOX or CON1, had any impact	decreased	increased	consistently increased							
increased	inhibition of P-glycoprotein activity	C=C[C@](C)(O)CC[C@@H]1[C@@]2(C)CCCC(C)(C)[C@@H]2CC[C@@]1(C)O [SC, sclareol]										20 to 70 µM	did not enhance	4.5 times				
		N1-((25,3S,4S,6R)-3-hydroxy-2-methyl-6-(((1S,3S)-3,5,12-trihydroxy-3-(2-hydroxyacetyl)-10-methoxy-6,11-dioxo-1,2,3,4,6,11-hexahydrotetracen-1-yl)oxy)tetrahydro-2H-pyran-4-yl)-N4-(3-((4-((R,E)-3-hydroxy-5-((1R,2R,4aS,8aS)-2-hydroxy-2,5,5,8a-tetramethyldecahydronaphthalen-1-yl)-3-methylpent-1-en-1-yl)benzyl)amino)propyl) succinamide [CON1]			did not change	increase ALP levels after 48 h	increased	None of the tested compounds, DOX or CON1, had any impact	did not have any impact	did not have any impact					not significantly relevant	temporary increase	decrease	transiently increased
